Source: patent US11008345B2, “Boron-containing small molecules” (Anacor Pharmaceuticals, Inc., priority 2010, dated 2021)
Counter-ions that a name gives are not always drawn. Like-named read-outs stand apart in the source and are kept apart here.

Columns and labels:
[1] = system: M. tuberculosis strain Erdman; assay type: in vivo; details: day 24, C57BL/6 GKO mice
[2] = system: M. tuberculosis strain Erdman; assay type: in vivo; details: C57BL/6 GKO mice; for log 10 CFU for lungs: day 22, lungs; for log 10 CFU for spleens: day 22, spleens

## CCOc1ccc(Cl)c2c1B(O)O[C@@H]2CN.Cl (single isomer, unassigned) [L]
[1]; 100 mg/kg QD PO
  log 10 CFU/lung: 3.08 (0.06) log 10 CFU/lung

## CCOc1ccc(F)c2c1B(O)O[C@@H]2CN.Cl (single isomer, unassigned) [N]
[2]; 100 mg/kg BID PO
  log 10 CFU for lungs: 5.51 (0.09) log 10 CFU
  log 10 CFU for spleens: 2.42 (0.48) log 10 CFU

## CCOc1ccc(F)c2c1B(O)OC2CN.Cl (stereo not shown) [C, 3-Aminomethyl-7-ethoxy-4-fluoro-3H-benzo[c][1,2]-oxaborol-1-ol; Hydrochloride]
[1]; 100 mg/kg BID PO
  log 10 CFU/lung: 5.06 (0.26) log 10 CFU/lung

## CCOc1ccc(Br)c2c1B(O)OC2CN (stereo not shown) [E, 3-(Aminomethyl)-4-bromo-7-ethoxybenzo[c][1,2]oxaborol-1(3H)-ol 2,2,2-trifluoroacetate Salt]
[1]; 100 mg/kg BID PO
  log 10 CFU/lung: 2.73 (0.05) log 10 CFU/lung
[2]; 100 mg/kg QD PO
  log 10 CFU for lungs: 5.27 (0.12) log 10 CFU
  log 10 CFU for spleens: 4.27 (0.25) log 10 CFU

## NNC(=O)c1ccncc1 [INH, Isoniazid, reference compound]
[2]; 25 mg/kg QD PO
  log 10 CFU for lungs: 5.29 (0.13) log 10 CFU
  log 10 CFU for spleens: 4.27 (0.25) log 10 CFU

## CO[C@H]1/C=C/O[C@@]2(C)Oc3c(C)c(O)c4c(O)c(c(/C=N/N5CCN(C)CC5)c(O)c4c3C2=O)NC(=O)/C(C)=C\C=C\[C@H](C)[C@H](O)[C@@H](C)[C@@H](O)[C@@H](C)[C@H](OC(C)=O)[C@@H]1C [rifampicin, reference compound]
[1]; 10 mg/kg QD PO
  log 10 CFU/lung: 6.16 (0.10) log 10 CFU/lung
